Tests used:
[1] = target: T1, Adenosine receptor A1 (Homo sapiens) (UniProt P30542); test: Displacement of [3H]R-PIA from recombinant human A1AR expressed in HEK293 cell membranes at 10 uM measured after 60 mins by liquid scintillation counting method relative to control
T1 sequence (whole entry): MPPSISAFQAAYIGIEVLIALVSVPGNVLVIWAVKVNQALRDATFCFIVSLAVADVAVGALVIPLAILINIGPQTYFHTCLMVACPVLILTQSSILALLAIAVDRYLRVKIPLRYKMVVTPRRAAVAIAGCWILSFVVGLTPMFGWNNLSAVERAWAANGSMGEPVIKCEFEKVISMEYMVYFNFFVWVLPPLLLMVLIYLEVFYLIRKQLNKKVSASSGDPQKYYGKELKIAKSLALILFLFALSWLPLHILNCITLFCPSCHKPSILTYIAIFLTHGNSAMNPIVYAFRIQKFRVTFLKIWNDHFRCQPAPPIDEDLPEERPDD

Adenosine receptor A2a [2] = target: T2, Adenosine receptor A2a (Homo sapiens, UniProt P29274); test: Displacement of [3H]CGS21680 from recombinant human A2AAR expressed in HEK293 cell membranes at 10 uM measured after 60 mins by liquid scintillation counting method relative to control
Adenosine receptor A3 [3] = target: T3, Adenosine receptor A3 (Homo sapiens, UniProt P0DMS8); test: biochemical
T3 sequence (P0DMS8 whole entry): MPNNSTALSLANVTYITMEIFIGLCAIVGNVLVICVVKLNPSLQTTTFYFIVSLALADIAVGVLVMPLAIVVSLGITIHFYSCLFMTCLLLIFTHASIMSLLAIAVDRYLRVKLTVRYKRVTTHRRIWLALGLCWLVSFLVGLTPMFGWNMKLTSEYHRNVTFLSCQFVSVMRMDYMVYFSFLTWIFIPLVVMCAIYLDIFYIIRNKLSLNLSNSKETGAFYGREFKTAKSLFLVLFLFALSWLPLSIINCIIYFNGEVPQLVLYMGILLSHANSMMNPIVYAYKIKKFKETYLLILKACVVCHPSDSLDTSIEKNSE

Adenosine receptor A3 [4] = target: T4, Adenosine receptor A3 (Mus musculus, UniProt Q61618); test: biochemical
T4 sequence (Q61618 whole entry): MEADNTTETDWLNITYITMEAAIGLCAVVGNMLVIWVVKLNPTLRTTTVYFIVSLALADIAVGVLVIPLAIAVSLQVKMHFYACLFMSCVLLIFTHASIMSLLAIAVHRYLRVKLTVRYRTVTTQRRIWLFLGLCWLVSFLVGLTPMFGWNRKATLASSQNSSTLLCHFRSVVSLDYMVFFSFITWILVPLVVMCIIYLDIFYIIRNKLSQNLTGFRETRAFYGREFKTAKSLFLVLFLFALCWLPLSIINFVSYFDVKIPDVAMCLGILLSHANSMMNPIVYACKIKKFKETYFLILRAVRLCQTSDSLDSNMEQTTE

Adenosine receptor A1 [5] = target: T5, Adenosine receptor A1 (Homo sapiens, UniProt P30542); test: Displacement of [3H]R-PIA from recombinant human A1AR expressed in HEK293 cell membranes measured after 60 mins by liquid scintillation counting method
T5 sequence (P30542 whole entry): T1 sequence (whole entry)

[6] = target: T6, Adenosine receptor A3 (Homo sapiens) (UniProt P0DMS8); test: Partial agonist activity at recombinant human A3AR expressed in HEK293 cells assessed as inhibition of forskolin-stimulated cAMP accumulation by measuring residual cAMP level measured after 30 mins in presence of A2BAR blocker PSB-603 by Glo-sensor assay relative to control; type: functional, cell-based
T6 sequence (whole entry): T3 sequence (P0DMS8 whole entry)

[7] = target: T6, Adenosine receptor A3 (Homo sapiens); test: Partial agonist activity at recombinant human A3AR expressed in HEK293 cells assessed as inhibition of forskolin-stimulated cAMP accumulation at 10 uM measured after 30 mins in presence of A2BAR blocker PSB-603 by Glo-sensor assay relative to Cl-IB-MECA; type: functional, cell-based
Adenosine receptor A3 [8] = target: T3, Adenosine receptor A3; test: Partial agonist activity at recombinant human A3AR expressed in HEK293 cells assessed as inhibition of forskolin-stimulated cAMP accumulation measured after 30 mins in presence of A2BAR blocker PSB-603 by Glo-sensor assay; type: functional, cell-based
[9] = target: T7, Adenosine receptor A3 (Mus musculus) (UniProt Q61618); test: Partial agonist activity at recombinant mouse A3AR expressed in HEK293 cell membranes assessed as stimulation of [35S]GTPgammaS binding measured after 2 hrs in presence of A2BAR blocker PSB-603 by liquid scintillation counting analysis relative to adenosine-5'-Nethyluronamide; type: functional
T7 sequence (whole entry): T4 sequence (Q61618 whole entry)

Adenosine receptor A1 [10] = target: T8, Adenosine receptor A1 (Mus musculus, UniProt Q60612); test: Displacement of [3H]R-PIA from recombinant mouse A1AR expressed in HEK293 cell membranes measured after 60 mins by liquid scintillation counting method
T8 sequence (Q60612 whole entry): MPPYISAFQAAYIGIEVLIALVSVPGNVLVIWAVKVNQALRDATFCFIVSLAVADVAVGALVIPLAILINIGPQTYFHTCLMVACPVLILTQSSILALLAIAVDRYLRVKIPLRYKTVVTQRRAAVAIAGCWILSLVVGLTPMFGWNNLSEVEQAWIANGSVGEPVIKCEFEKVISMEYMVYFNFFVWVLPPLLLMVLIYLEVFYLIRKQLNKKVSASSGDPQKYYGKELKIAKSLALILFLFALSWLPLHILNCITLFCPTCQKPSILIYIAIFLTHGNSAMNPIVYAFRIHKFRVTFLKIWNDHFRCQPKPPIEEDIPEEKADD

Translocator protein = Translocator protein (Homo sapiens, UniProt P30536); test: Inhibition of TSPO (unknown origin)
Adenosine receptor A2a [11] = target: T2, Adenosine receptor A2a; test: Displacement of [3H]CGS21680 from recombinant human A2AAR expressed in HEK293 cell membranes measured after 60 mins by liquid scintillation counting method

T2 sequence (P29274 whole entry): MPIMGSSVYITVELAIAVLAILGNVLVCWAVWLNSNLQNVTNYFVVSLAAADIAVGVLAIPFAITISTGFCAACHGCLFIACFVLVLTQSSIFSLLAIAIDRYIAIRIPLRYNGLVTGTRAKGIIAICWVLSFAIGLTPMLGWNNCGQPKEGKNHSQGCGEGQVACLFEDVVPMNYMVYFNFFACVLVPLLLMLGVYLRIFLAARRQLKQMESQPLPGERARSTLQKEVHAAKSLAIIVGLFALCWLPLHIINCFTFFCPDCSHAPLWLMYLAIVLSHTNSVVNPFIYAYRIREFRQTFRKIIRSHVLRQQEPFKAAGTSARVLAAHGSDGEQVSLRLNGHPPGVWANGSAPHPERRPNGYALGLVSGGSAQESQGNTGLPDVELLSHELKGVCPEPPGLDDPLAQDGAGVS
Chain of Translocator protein (P30536 whole entry): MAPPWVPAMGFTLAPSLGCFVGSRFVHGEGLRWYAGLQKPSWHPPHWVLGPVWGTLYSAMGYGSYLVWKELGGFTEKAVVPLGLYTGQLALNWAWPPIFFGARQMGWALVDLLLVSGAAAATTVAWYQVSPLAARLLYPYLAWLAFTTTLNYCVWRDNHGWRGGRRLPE

SMILES | inhibition [1] [%] | inhibition (Adenosine receptor A2a [2]) [%] | Ki (Adenosine receptor A3 [3]) [nM] | Ki (Adenosine receptor A3 [4]) [nM] | other results
COc1cc(CCNc2nc(C#Cc3cccnc3)nc3c2ncn3[C@H]2[C@H](O)[C@H](O)[C@@H]3C[C@@H]32)ccc1O | 36 | 39 | 6.7 | 155 | 
COc1cc(CCNc2nc(I)nc3c2ncn3[C@H]2[C@H](O)[C@H](O)[C@@H]3C[C@@H]32)ccc1O | 50 | 49 | 9.1 | 92.5 | 
COc1cc(CCNc2nc(C#Cc3ccc(F)c(F)c3)nc3c2ncn3[C@H]2[C@H](O)[C@H](O)[C@@H]3C[C@@H]32)ccc1O |  | 33 | 12.8 | 75 | Ki (Adenosine receptor A1 [5]): 341 nM
O[C@@H]1[C@H](O)[C@@H]2C[C@@H]2[C@H]1n1cnc2c(NCCc3ccccc3)nc(C#Cc3ccc(Cl)s3)nc21 | 10 | 46 | 8.17 | 995 | Emax [6]: 37.6%; Emax [7]: 80%; EC50 (Adenosine receptor A3 [8]): 2410 nM
O[C@@H]1[C@H](O)[C@@H]2C[C@@H]2[C@H]1n1cnc2c(NCCc3cccc(F)c3)nc(C#Cc3ccc(F)s3)nc21 |  | 48 | 55.8 | 404 | Ki (Adenosine receptor A1 [5]): 2290 nM
CCNC(=O)[C@H]1O[C@@H](n2cnc3c(N)ncnc32)[C@H](O)[C@@H]1O |  |  |  |  | Emax [9]: 100%
COc1cc(CCNc2nc(C#Cc3ccc(Br)s3)nc3c2ncn3[C@H]2[C@H](O)[C@H](O)[C@@H]3C[C@@H]32)ccc1O | 15 | 38 | 3.24 | 26 | Ki (Adenosine receptor A1 [10]): 2840 nM; Emax [6]: 61%; Emax [7]: 50%; EC50 (Adenosine receptor A3 [8]): 692 nM
O[C@@H]1[C@H](O)[C@@H]2C[C@@H]2[C@H]1n1cnc2c(NCCc3cccc(Cl)c3)nc(C#Cc3ccc(Cl)s3)nc21 | 39 | 59 | 58.4 | 531 | 
O[C@@H]1[C@H](O)[C@@H]2C[C@@H]2[C@H]1n1cnc2c(NCCc3ccc(F)c(F)c3)nc(C#Cc3ccc(Cl)s3)nc21 | 28 | 57 | 47.1 | 2520 | 
O[C@@H]1[C@H](O)[C@@H]2C[C@@H]2[C@H]1n1cnc2c(NCCc3cccc(F)c3)nc(C#Cc3ccc(Cl)s3)nc21 | 31 | 55 | 42.2 | 488 | Ki (Translocator protein): 200 nM
Cc1cccc(CCNc2nc(C#Cc3ccc(Cl)s3)nc3c2ncn3[C@H]2[C@H](O)[C@H](O)[C@@H]3C[C@@H]32)c1 | 29 | 50 | 106 | 675 | 
Oc1ccc(CCNc2nc(C#Cc3ccccc3)nc3c2ncn3[C@H]2[C@H](O)[C@H](O)[C@@H]3C[C@@H]32)cc1 | 29 | 32 | 45.6 | 76.4 | 
Nc1ccc(CCNc2nc(C#Cc3ccccc3)nc3c2ncn3[C@H]2[C@H](O)[C@H](O)[C@@H]3C[C@@H]32)cc1 | 30 | 26 | 14.2 | 60.4 | 
O[C@@H]1[C@H](O)[C@@H]2C[C@@H]2[C@H]1n1cnc2c(NCCc3cccc(F)c3)nc(C#Cc3ccccc3)nc21 |  | 27 | 35.9 | 264 | Ki (Adenosine receptor A1 [5]): 2680 nM
COc1cc(CCNc2nc(C#Cc3cccc(F)c3)nc3c2ncn3[C@H]2[C@H](O)[C@H](O)[C@@H]3C[C@@H]32)ccc1O | 38 | 51 | 4.63 | 72.2 | 
COc1cc(CCNc2nc(C#Cc3ccc(Cl)s3)nc3c2ncn3[C@H]2[C@H](O)[C@H](O)[C@@H]3C[C@@H]32)ccc1O |  | 38 | 9.52 | 74.7 | Ki (Adenosine receptor A1 [5]): 649 nM
COc1cc(CCNc2nc(C#Cc3ccc(F)cc3)nc3c2ncn3[C@H]2[C@H](O)[C@H](O)[C@@H]3C[C@@H]32)ccc1O | 39 | 51 | 6.51 | 54.4 | 
Oc1ccc(CCNc2nc(C#Cc3ccccc3)nc3c2ncn3[C@H]2[C@H](O)[C@H](O)[C@@H]3C[C@@H]32)cc1O | 28 | 27 | 48.8 | 39.8 | Ki (Adenosine receptor A1 [10]): 1420 nM
COc1ccc(CCNc2nc(C#Cc3ccccc3)nc3c2ncn3[C@H]2[C@H](O)[C@H](O)[C@@H]3C[C@@H]32)cc1OC |  | 28 | 16.3 | 331 | Ki (Adenosine receptor A1 [5]): 208 nM
Oc1ccc(CCNc2nc(C#Cc3ccccc3)nc3c2ncn3[C@H]2[C@H](O)[C@H](O)[C@@H]3C[C@@H]32)cc1F | 44 | 17 | 9.03 | 61.6 | 
COc1cc(CCNc2nc(C#Cc3ccccc3F)nc3c2ncn3[C@H]2[C@H](O)[C@H](O)[C@@H]3C[C@@H]32)ccc1O |  |  | 5.42 | 21.5 | Ki (Adenosine receptor A1 [5]): 186 nM; Ki (Adenosine receptor A1 [10]): 620 nM; Ki (Adenosine receptor A2a [11]): 5850 nM
O[C@@H]1[C@H](O)[C@@H]2C[C@@H]2[C@H]1n1cnc2c(NCCc3ccccc3)nc(C#Cc3ccccc3Cl)nc21 |  |  |  | 980 | 
O[C@@H]1[C@H](O)[C@@H]2C[C@@H]2[C@H]1n1cnc2c(N[C@H]3C[C@@H]3c3ccccc3)nc(C#Cc3ccc(Cl)s3)nc21 | 32 | 44 | 80.5 | 1140 | 
COc1ccc(CCNc2nc(C#Cc3ccccc3)nc3c2ncn3[C@H]2[C@H](O)[C@H](O)[C@@H]3C[C@@H]32)cc1O | 49 | 27 | 6.85 | 122 | 

From ChEMBL document CHEMBL4402597, “Truncated (N)-Methanocarba Nucleosides as Partial Agonists at Mouse and Human A3 Adenosine Receptors: Affinity Enhancement by N6-(2-Phenylethyl) Substitution” (J Med Chem, 2020)
